Measurements taken from the NIST ThermoML archive (doi:10.1016/j.jct.2016.10.034).

Assay: xn = mol fraction of the nth substance listed
Details: 100 kPa, Liquid; for viscosity: Falling or rolling sphere viscometry; for mass density: Vibrating tube method

CC[N+]1(C)CCOCC1.O=C([O-])CO [N-ethyl-N-methylmorpholinium glycolate] + O
Details | mass density [kg/m3] | viscosity [mPa·s]
298.15 K, x1 = 0.0933 | 1128.6 | –
298.15 K, x1 = 0.1688 | 1170.3 | 21.4
298.15 K, x1 = 0.2209 | 1186.5 | 43.1
298.15 K, x1 = 0.288 | 1199.7 | 95.3
298.15 K, x1 = 0.3907 | 1211.3 | 359
298.15 K, x1 = 0.4809 | 1217.5 | 842
298.15 K, x1 = 0.5793 | 1221.9 | 1779
298.15 K, x1 = 0.6669 | 1224.6 | –
298.15 K, x1 = 0.7573 | 1226.9 | –
298.15 K, x1 = 0.8256 | 1228 | –
303.15 K, x1 = 0.0933 | 1125.6 | –
303.15 K, x1 = 0.1688 | 1167 | 17
303.15 K, x1 = 0.2209 | 1183.1 | 32.9
303.15 K, x1 = 0.288 | 1196.3 | 69.7
303.15 K, x1 = 0.3907 | 1207.9 | 224
303.15 K, x1 = 0.4809 | 1214.1 | 494
303.15 K, x1 = 0.5793 | 1218.5 | 1005
303.15 K, x1 = 0.6669 | 1221.2 | 1723
303.15 K, x1 = 0.7573 | 1223.6 | –
303.15 K, x1 = 0.8256 | 1224.8 | –
308.15 K, x1 = 0.0933 | 1122.6 | –
308.15 K, x1 = 0.1688 | 1163.7 | 13.9
308.15 K, x1 = 0.2209 | 1179.6 | 25.8
308.15 K, x1 = 0.288 | 1192.8 | 52.3
308.15 K, x1 = 0.3907 | 1204.5 | 158
308.15 K, x1 = 0.4809 | 1210.7 | 339
308.15 K, x1 = 0.5793 | 1215.1 | 678
308.15 K, x1 = 0.6669 | 1217.9 | 1151
308.15 K, x1 = 0.7573 | 1220.2 | 1866
308.15 K, x1 = 0.8256 | 1221.5 | –
313.15 K, x1 = 0.0933 | 1119.5 | –
313.15 K, x1 = 0.1688 | 1160.4 | 11.3
313.15 K, x1 = 0.2209 | 1176.2 | 20.1
313.15 K, x1 = 0.288 | 1189.4 | 40.5
313.15 K, x1 = 0.3907 | 1201.1 | 118
313.15 K, x1 = 0.4809 | 1207.3 | 250
313.15 K, x1 = 0.5793 | 1211.8 | 496
313.15 K, x1 = 0.6669 | 1214.6 | 838
313.15 K, x1 = 0.7573 | 1216.9 | 1354
313.15 K, x1 = 0.8256 | 1218.2 | 1882
318.15 K, x1 = 0.0933 | 1116.4 | –
318.15 K, x1 = 0.1688 | 1157 | 9.61
318.15 K, x1 = 0.2209 | 1172.8 | 16.8
318.15 K, x1 = 0.288 | 1186 | 32
318.15 K, x1 = 0.3907 | 1197.7 | 85.6
318.15 K, x1 = 0.4809 | 1204 | 174
318.15 K, x1 = 0.5793 | 1208.5 | 334
318.15 K, x1 = 0.6669 | 1211.2 | 555
318.15 K, x1 = 0.7573 | 1213.7 | 884
318.15 K, x1 = 0.8256 | 1214.9 | 1219
323.15 K, x1 = 0.0933 | 1113.2 | –
323.15 K, x1 = 0.1688 | 1153.6 | 8.15
323.15 K, x1 = 0.2209 | 1169.4 | 13.9
323.15 K, x1 = 0.288 | 1182.6 | 25.5
323.15 K, x1 = 0.3907 | 1194.3 | 65.4
323.15 K, x1 = 0.4809 | 1200.6 | 130
323.15 K, x1 = 0.5793 | 1205.2 | 246
323.15 K, x1 = 0.6669 | 1207.9 | 405
323.15 K, x1 = 0.7573 | 1210.3 | 642
323.15 K, x1 = 0.8256 | 1211.7 | 882
328.15 K, x1 = 0.0933 | 1110 | –
328.15 K, x1 = 0.1688 | 1150.2 | 6.97
328.15 K, x1 = 0.2209 | 1166 | 11.7
328.15 K, x1 = 0.288 | 1179.2 | 20.8
328.15 K, x1 = 0.3907 | 1191 | 54
328.15 K, x1 = 0.4809 | 1197.3 | 98.6
328.15 K, x1 = 0.5793 | 1201.9 | 179
328.15 K, x1 = 0.6669 | 1204.7 | 283
328.15 K, x1 = 0.7573 | 1207 | 435
328.15 K, x1 = 0.8256 | 1208.5 | 587
333.15 K, x1 = 0.0933 | 1106.8 | –
333.15 K, x1 = 0.1688 | 1146.8 | 6
333.15 K, x1 = 0.2209 | 1162.6 | 9.79
333.15 K, x1 = 0.288 | 1175.8 | 17.3
333.15 K, x1 = 0.3907 | 1187.6 | 43.4
333.15 K, x1 = 0.4809 | 1194 | 77.6
333.15 K, x1 = 0.5793 | 1198.6 | 138
333.15 K, x1 = 0.6669 | 1201.5 | 217
333.15 K, x1 = 0.7573 | 1203.8 | 329
333.15 K, x1 = 0.8256 | 1205.2 | 441
338.15 K, x1 = 0.0933 | 1103.5 | –
338.15 K, x1 = 0.1688 | 1143.4 | 5.2
338.15 K, x1 = 0.2209 | 1159.2 | 8.55
338.15 K, x1 = 0.288 | 1172.4 | 14.6
338.15 K, x1 = 0.3907 | 1184.3 | 32.4
338.15 K, x1 = 0.4809 | 1190.7 | 59
338.15 K, x1 = 0.5793 | 1195.4 | 105
338.15 K, x1 = 0.6669 | 1198.3 | 165
338.15 K, x1 = 0.7573 | 1200.8 | 253
338.15 K, x1 = 0.8256 | 1202.1 | 340
343.15 K, x1 = 0.0933 | 1100.2 | –
343.15 K, x1 = 0.1688 | 1140 | 4.55
343.15 K, x1 = 0.2209 | 1155.8 | 7.41
343.15 K, x1 = 0.288 | 1169 | 12.4
343.15 K, x1 = 0.3907 | 1181 | 28.9
343.15 K, x1 = 0.4809 | 1187.5 | 49.6
343.15 K, x1 = 0.5793 | 1192.2 | 85.3
343.15 K, x1 = 0.6669 | 1195.1 | 131
343.15 K, x1 = 0.7573 | 1197.6 | 195
343.15 K, x1 = 0.8256 | 1199 | 258
348.15 K, x1 = 0.0933 | 1096.8 | –
348.15 K, x1 = 0.1688 | 1136.6 | 4.01
348.15 K, x1 = 0.2209 | 1152.4 | 6.46
348.15 K, x1 = 0.288 | 1165.7 | 10.7
348.15 K, x1 = 0.3907 | 1177.7 | 24.2
348.15 K, x1 = 0.4809 | 1184.2 | 40.4
348.15 K, x1 = 0.5793 | 1189 | 67.9
348.15 K, x1 = 0.6669 | 1192 | 102
348.15 K, x1 = 0.7573 | 1194.5 | 150
348.15 K, x1 = 0.8256 | 1195.9 | 196
